Data on 6 compounds can be found in patent publication US10100049B2, “JAK kinase inhibitor compounds for treatment of respiratory disease” (THERAVANCE BIOPHARMA R&D IP, LLC, priority 2015, dated 2018).

Each structure is given as a SMILES string. Where only a bound is given, the exact number is not on record here.

The nature of series [1]: Pharmacokinetics in plasma and lung in mouse. The note with it: oral aspiration 0.2 mg/mL 50 uL, lung AUC (μg hr/g) / plasma AUC (μg hr/mL). The class given is in vivo. As to the method:
Plasma and lung levels of test compounds and ratios thereof were determined in the following manner. BALB/c mice from Charles River Laboratories were used in the assay. Test compounds were individually formulated in 20% propylene glycol in pH 4 citrate buffer at a concentration of 0.2 mg/mL and 50 uL of the dosing solution was introduced into the trachea of a mouse by oral aspiration. At various time points (typically 0.167, 2, 6, 24 hr) post dosing, blood samples were removed via cardiac puncture and intact lungs were excised from the mice. Blood samples were centrifuged (Eppendorf centrifuge, 5804R) for 4 minutes at approximately 12,000 rpm at 4° C. to collect plasma. Lungs were padded dry, weighed, and homogenized at a dilution of 1:3 in sterile water. Plasma and lung levels of test compound were determined by LC-MS analysis against analytical standards constructed into a standard curve in the test matrix. A lung to plasma ratio was determined as the ratio of the lung AUC in μg hr/g to the plasma AUC in μg hr/mL, where AUC is conventionally defined as the area under the curve of test compound concentration vs. time.

In series [2] the test system is IL-13 induced STAT6 phosphorylation in BEAS-2B human lung epithelial cells. Put plainly: AlphaScreen cellular potency assay, IL-13 induced STAT6 phosphorylation in BEAS-2B cells. The note with it: Homo sapiens; IL-13 induced STAT6 phosphorylation, BEAS-2B cells; read-out: BEAS-2B pIC50 (converted). The class given is cell-based. (In general: Alpha assays give light when donor and acceptor beads are brought close together.)
Protocol: The AlphaScreen JAM cellular potency assay was carried out by measuring interleukin-13 (IL-13, R&D Systems) induced STAT6 phosphorylation in BEAS-2B human lung epithelial cells (ATCC). The anti-STAT6 antibody (Cell Signaling Technologies) was conjugated to AlphaScreen acceptor beads (Perkin Elmer), while the anti-pSTAT6 (pTyr641) antibody (Cell Signaling Technologies) was biotinylated using EZ-Link Sulfo-NHS-Biotin (Thermo Scientific).
BEAS-2B cells were grown at 37° C. in a 5% CO2 humidified incubator in 50% DMEM/50% F-12 medium (Life Technologies) supplemented with 10% FBS (Hyclone), 100 U/mL penicillin, 100 μg/mL streptomycin (Life Technologies), and 2 mM GlutaMAX (Life Technologies). On day 1 of the assay, cells were seeded at a 7,500 cells/well density in white poly-D-lysine-coated 384-well plates (Corning) with 25 μL medium, and were allowed to adhere overnight in the incubator. On day 2 of the assay, the medium was removed and replaced with 12 μL of assay buffer (Hank's Balanced Salt Solution/HBSS, 25 mM HEPES, and 1 mg/ml bovine serum albumin/BSA) containing dose-responses of test compounds. Compounds were serially diluted in DMSO and then diluted another 1000-fold in media to bring the final DMSO concentration to 0.1%. Cells were incubated with test compounds at 37° C. for 1 h, and followed by the addition of 12 μl of pre-warmed IL-13 (80 ng/ml in assay buffer) for stimulation. After incubating at 37° C. for 30 min, the assay buffer (containing compound and IL-13) was removed, and 10 μl of cell lysis buffer (25 mM HEPES, 0.1% SDS, 1% NP-40, 5 mM MgCl2, 1.3 mM EDTA, 1 mM EGTA, and supplement with Complete Ultra mini protease inhibitors and PhosSTOP from Roche Diagnostics). The plates were shaken at ambient temperature for 30 min before the addition of detection reagents. A mixture of biotin-anti-pSTAT6 and anti-STAT6 conjugated acceptor beads was added first and incubated at ambient temperature for 2 h, followed by the addition of streptavidin conjugated donor beads (Perkin Elmer). After a minimum of 2 h incubation, the assay plates were read on the EnVision plate reader.
Results were expressed as the negative logarithm of the IC50 value, pIC50.

A further series deals with JAK2 (Homo sapiens (Human), UniProt O60674).
Series [3] deals with Alternaria-induced BALF eosinophils. Kind of series: Murine model of Alternaria alternata-induced eosinophilic inflammation of the lung. Type of series: in vivo. Conditions: mouse; maximum statistically significant inhibition; 0.1-1.0 mg/mL, 50 μL oropharyngeal aspiration; BALF 48 h after alternaria. The protocol:
Airway eosinophilia is a hallmark of human asthma. Alternaria alternata is a fungal aeroallergen that can exacerbate asthma in humans and induces eosinophilic inflammation in the lungs of mice (Havaux et al. Clin Exp Immunol. 2005, 139(2):179-88).
Seven- to nine-week old male C57 mice from Taconic were used in the study. On the day of study, animals were lightly anesthetized with isoflurane and administered either vehicle or test compound (0.1-1.0 mg/mL, 50 μL total volume over several breaths) via oropharyngeal aspiration. Animals were placed in lateral recumbency post dose and monitored for full recovery from anesthesia before being returned to their home cage. One hour later, animals were once again briefly anesthetized and challenged with either vehicle or alternaria extract (200 ug total extract delivered, 50 μL total volume) via oropharyngeal aspiration before being monitored for recovery from anesthesia and returned to their home cage. Forty-eight hours after alternaria administration, bronchoalveolar lavage fluid (BALF) was collected and eosinophils were counted in the BALF using the Advia 120 Hematology System (Siemens).
Selected compounds of the invention were tested in this alternaria assay. Activity in the model is evidenced by a decrease in the level of eosinophils present in the BALF of treated animals at forty-eight hours compared to the vehicle treated, alternaria challenged control animals. Data are expressed as percent inhibition of the vehicle treated, alternaria challenged BALF eosinophils response. To calculate percent inhibition, the number of BALF eosinophils for each condition is converted to percent of the average vehicle treated, alternaria challenged BALF eosinophils and subtracted from one-hundred percent.

The subject of series [4] is IL-13 induced pSTAT6 in lung tissue. Put plainly: Murine model of IL-13 induced pSTAT6 induction in lung tissue. Type of series: in vivo. The note with it: mouse lung; 0.5 mg/mL, 50 μL oral aspiration; IL-13 challenge 4 h after dosing, lungs collected 1 h later; read-out: pSTAT6 inhibition Assay 5. As to the method: Il-13 is an important cytokine underlying the pathophysiology of asthma (Kudlacz et al. Eur. J. Pharmacol, 2008, 582, 154-161). IL-13 binds to cell surface receptors activating members of the Janus family of kinases (JAK) which then phosphorylate STAT6 and subsequently activates further transcription pathways. In the described model, a dose of IL-13 was delivered locally into the lungs of mice to induce the phosphorylation of STAT6 (pSTAT6) which is then measured as the endpoint.
Adult balb/c mice from Harlan were used in the assay. On the day of study, animals were lightly anesthetized with isoflurane and administered either vehicle or test compound (0.5 mg/mL, 50 μL total volume over several breaths) via oral aspiration. Animals were placed in lateral recumbency post dose and monitored for full recovery from anesthesia before being returned to their home cage. Four hours later, animals were once again briefly anesthetized and challenged with either vehicle or IL-13 (0.03 μg total dose delivered, 50 μL total volume) via oral aspiration before being monitored for recovery from anesthesia and returned to their home cage. One hour after vehicle or IL-13 administration, lungs were collected for both pSTAT6 detection using an anti-pSTAT6 ELISA (rabbit mAb capture/coating antibody; mouse mAb detection/report antibody: anti-pSTAT6-pY641; secondary antibody: anti-mouse IgG-HRP) and analyzed for total drug concentration as described above in Assay 4.
Selected compounds of the invention were tested in the assay. Activity in the model is evidenced by a decrease in the level of pSTAT6 present in the lungs of treated animals at 5 hours compared to the vehicle treated, IL-13 challenged control animals. The difference between the control animals which were vehicle-treated, IL-13 challenged and the control animals which were vehicle-treated, vehicle challenged dictated the 0% and 100% inhibitory effect, respectively, in any given experiment.

The next series concerns the target Tyk2 (Homo sapiens (Human), UniProt P29597). Put plainly: LanthaScreen JAK biochemical assay (Tyk2). Further: ATP at Km 10 µM. Conditions: read-out: Tyk 2 (PKi). On the technique in general: In TR-FRET formats the signal depends on donor and acceptor labels being close together.
In a further series the target is JAK3 (Homo sapiens (Human), UniProt P52333). Kind of series: LanthaScreen JAK biochemical assay (JAK3). Conditions: ATP at Km 1.6 μM; read-out: JAK 3 (pKi) (converted).
Sequence of JAK3 (P52333 whole entry): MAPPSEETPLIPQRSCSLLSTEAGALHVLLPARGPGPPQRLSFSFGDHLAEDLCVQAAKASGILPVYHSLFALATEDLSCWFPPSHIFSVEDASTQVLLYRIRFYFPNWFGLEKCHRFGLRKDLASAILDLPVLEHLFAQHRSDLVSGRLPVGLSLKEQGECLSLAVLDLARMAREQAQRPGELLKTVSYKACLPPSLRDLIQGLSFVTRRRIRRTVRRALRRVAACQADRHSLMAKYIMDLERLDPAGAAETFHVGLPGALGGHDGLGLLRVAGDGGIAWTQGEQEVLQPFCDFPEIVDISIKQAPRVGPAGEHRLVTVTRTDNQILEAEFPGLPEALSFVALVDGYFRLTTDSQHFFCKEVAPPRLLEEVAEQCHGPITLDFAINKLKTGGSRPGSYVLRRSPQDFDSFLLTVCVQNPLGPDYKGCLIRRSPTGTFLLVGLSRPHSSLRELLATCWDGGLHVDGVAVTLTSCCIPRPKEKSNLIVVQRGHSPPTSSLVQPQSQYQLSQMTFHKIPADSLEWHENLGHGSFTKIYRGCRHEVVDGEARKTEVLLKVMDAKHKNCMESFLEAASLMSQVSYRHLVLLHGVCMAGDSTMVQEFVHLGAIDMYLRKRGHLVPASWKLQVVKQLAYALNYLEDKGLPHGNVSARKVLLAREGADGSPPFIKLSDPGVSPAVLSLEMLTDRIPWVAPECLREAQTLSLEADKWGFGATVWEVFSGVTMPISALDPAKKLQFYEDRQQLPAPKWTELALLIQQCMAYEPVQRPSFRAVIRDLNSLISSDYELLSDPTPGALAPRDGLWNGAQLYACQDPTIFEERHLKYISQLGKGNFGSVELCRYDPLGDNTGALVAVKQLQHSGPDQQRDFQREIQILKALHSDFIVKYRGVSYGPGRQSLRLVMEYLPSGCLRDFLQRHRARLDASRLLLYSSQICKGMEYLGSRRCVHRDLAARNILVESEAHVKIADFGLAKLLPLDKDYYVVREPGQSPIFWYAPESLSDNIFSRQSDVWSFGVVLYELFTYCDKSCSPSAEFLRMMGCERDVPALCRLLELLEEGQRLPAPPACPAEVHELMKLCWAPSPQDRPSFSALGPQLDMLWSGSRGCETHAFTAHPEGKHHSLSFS

Sequence of JAK2 (O60674 whole entry): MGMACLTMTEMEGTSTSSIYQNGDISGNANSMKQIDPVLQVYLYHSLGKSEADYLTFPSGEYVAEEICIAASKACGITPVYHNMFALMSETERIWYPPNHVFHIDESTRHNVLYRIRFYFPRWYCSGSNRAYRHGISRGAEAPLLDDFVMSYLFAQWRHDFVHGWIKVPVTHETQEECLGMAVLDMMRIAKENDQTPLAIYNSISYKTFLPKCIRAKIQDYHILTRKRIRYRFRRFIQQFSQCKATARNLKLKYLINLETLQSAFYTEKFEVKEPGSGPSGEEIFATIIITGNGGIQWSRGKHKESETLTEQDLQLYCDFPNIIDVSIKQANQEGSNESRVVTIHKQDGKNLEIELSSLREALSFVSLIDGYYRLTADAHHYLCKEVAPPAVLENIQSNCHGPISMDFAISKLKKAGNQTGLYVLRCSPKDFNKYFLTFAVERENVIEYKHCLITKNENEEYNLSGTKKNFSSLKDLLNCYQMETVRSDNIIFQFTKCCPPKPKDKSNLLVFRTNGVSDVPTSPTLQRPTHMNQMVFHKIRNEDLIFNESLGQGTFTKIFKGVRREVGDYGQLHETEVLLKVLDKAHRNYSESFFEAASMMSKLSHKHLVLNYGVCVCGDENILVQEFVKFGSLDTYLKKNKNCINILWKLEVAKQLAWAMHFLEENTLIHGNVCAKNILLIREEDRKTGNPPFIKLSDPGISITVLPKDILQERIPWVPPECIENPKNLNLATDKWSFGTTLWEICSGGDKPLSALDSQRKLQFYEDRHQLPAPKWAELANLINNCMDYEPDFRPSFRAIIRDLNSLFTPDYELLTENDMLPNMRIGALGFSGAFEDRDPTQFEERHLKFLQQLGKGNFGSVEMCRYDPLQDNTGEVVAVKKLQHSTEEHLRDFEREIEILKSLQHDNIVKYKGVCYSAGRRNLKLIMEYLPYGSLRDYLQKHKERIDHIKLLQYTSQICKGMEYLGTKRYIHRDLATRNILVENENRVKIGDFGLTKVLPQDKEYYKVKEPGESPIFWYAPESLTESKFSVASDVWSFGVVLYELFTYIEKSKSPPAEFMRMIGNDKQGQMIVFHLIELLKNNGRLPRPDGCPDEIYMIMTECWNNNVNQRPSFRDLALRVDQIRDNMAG
Sequence of Tyk2 (P29597 whole entry): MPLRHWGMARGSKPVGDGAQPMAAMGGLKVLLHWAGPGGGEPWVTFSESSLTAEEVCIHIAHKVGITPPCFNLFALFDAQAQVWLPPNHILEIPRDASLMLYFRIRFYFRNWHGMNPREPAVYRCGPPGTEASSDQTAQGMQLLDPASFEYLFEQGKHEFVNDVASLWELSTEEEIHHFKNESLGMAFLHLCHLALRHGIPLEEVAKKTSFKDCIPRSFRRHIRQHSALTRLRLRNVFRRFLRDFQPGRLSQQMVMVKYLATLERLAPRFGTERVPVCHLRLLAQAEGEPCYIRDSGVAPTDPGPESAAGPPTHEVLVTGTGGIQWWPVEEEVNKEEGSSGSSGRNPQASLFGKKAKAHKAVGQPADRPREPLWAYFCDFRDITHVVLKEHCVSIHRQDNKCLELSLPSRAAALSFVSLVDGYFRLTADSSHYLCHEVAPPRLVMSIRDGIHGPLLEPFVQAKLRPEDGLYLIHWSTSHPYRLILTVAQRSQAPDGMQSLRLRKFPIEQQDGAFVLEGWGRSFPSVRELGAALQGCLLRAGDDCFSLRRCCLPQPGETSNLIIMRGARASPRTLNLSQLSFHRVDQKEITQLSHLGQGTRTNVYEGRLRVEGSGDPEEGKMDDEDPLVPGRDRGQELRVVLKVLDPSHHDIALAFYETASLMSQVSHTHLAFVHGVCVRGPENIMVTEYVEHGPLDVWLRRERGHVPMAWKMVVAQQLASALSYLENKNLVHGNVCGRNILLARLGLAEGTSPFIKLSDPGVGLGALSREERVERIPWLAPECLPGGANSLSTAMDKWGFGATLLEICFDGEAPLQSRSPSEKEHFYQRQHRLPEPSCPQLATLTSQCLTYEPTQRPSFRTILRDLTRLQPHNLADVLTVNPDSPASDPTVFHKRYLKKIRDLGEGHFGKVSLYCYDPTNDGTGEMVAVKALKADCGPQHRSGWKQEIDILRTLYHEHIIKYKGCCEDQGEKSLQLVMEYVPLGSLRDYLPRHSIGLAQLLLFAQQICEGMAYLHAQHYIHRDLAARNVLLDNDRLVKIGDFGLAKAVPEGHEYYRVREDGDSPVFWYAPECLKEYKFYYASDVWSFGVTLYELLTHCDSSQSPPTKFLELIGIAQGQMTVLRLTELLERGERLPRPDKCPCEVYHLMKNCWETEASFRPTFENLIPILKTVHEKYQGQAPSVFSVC

Turning to `CCc1cc(O)c(F)cc1-c1ccc2c(-c3nc4c([nH]3)CCN(C3CN(C)C3)C4)n[nH]c2c1` [Example 1, 5-Ethyl-2-fluoro-4-(3-(5-(1-methylazetidin-3-yl)-4,5,6,7-tetrahydro-1H-imidazo[4,5-c]pyridin-2-yl)-1H-indazol-6-yl)phenol], in series [1], the “Lung to Plasma ratio Assay 4” value is “B (B denotes a ratio between 50 and 100)”. Further, the IC50 in series [2] was under 10 nM. This compound showed a Ki at JAK2 of under 0.1 nM. Moreover, the “Percent Inhibition of Alternaria-induced BALF Eosinophils” value (“Percent Inhibition” for short) in series [3] was 98%. For the same compound, the inhibition in vivo at 500 µg/mL in series [4] is over 65%.
As to `CCc1cc(O)c(F)cc1-c1ccc2c(-c3nc4c([nH]3)CCN(C3CNC3)C4)n[nH]c2c1` [Example 2, 4-(3-(5-(azetidin-3-yl)-4,5,6,7-tetrahydro-1H-imidazo[4,5-c]pyridin-2-yl)-1H-indazol-6-yl)-5-ethyl-2-fluorophenol], the “Lung to Plasma ratio Assay 4” value in series [1] is “C (C denotes a ratio between 10 and 50)”. The IC50 in series [2] is 10 to 39.8 nM. Besides, the Ki was under 0.1 nM at JAK2 and 0.1 to 1 nM on Tyk2. For the same compound, in series [3], the “Percent Inhibition” value is 93%. In series [4], the inhibition in vivo at 500 µg/mL fell in the range of 33 to 50%.
`CCc1cc(O)c(F)cc1-c1ccc2c(-c3nc4c([nH]3)CCN(C3CN(C(C)C)C3)C4)n[nH]c2c1` [Example 3, 5-ethyl-2-fluoro-4-(3-(5-(1-isopropylazetidin-3-yl)-4,5,6,7-tetrahydro-1H-imidazo[4,5-c]pyridin-2-yl)-1H-indazol-6-yl)phenol]: the “Lung to Plasma ratio Assay 4” value in series [1] was “C (C denotes a ratio between 10 and 50)”. Also, the IC50 in series [2] was under 10 nM. For the same compound, the figures for the Ki on JAK3, at JAK2 and at Tyk2 were 0.1 to 1 nM, under 0.1 nM and 0.1 to 1 nM, respectively. Further, the “Percent Inhibition” value in series [3] stood at 61%. Besides, the inhibition in vivo at 500 µg/mL in series [4] was over 65%.
As for `CCc1cc(O)c(F)cc1-c1ccc2c(-c3nc4c([nH]3)CCN(C3CCN(C)CC3)C4)n[nH]c2c1` [Example 6, 5-Ethyl-2-fluoro-4-(3-(5-(1-methylpiperidin-4-yl)-4,5,6,7-tetrahydro-1H-imidazo[4,5-c]pyridin-2-yl)-1H-indazol-6-yl)phenol], the “Lung to Plasma ratio Assay 4” value in series [1] was “B (B denotes a ratio between 50 and 100)”. In addition, the IC50 in series [2] was under 10 nM. Besides, the figures for the Ki on JAK3, on JAK2 and on Tyk2 were 0.1 to 1 nM, under 0.1 nM and 0.1 to 1 nM, respectively. Moreover, the “Percent Inhibition” value in series [3] is reported as 88%. For the same compound, the inhibition in vivo at 500 µg/mL in series [4] lay within 50 to 65%.
`CCc1cc(O)c(F)cc1-c1ccc2c(-c3nc4c([nH]3)CCN(CCN(C)C)C4)n[nH]c2c1` [Example 7, 4-(3-(5-(2-(dimethylamino)ethyl)-4,5,6,7-tetrahydro-1H-imidazo[4,5-c]pyridin-2-yl)-1H-indazol-6-yl)-5-ethyl-2-fluorophenol]: in series [1], the “Lung to Plasma ratio Assay 4” value is “B (B denotes a ratio between 50 and 100)”. The IC50 in series [2] is under 10 nM. Further, the Ki on JAK2 was under 0.1 nM. In series [3], the “Percent Inhibition” value was determined as 96%. The inhibition in vivo at 500 µg/mL in series [4] is over 65%.
On to `CCc1cc(O)c(F)cc1-c1ccc2c(-c3nc4c([nH]3)CCN(CCN3CCC[C@@H]3C)C4)n[nH]c2c1` [Example 15, (S)-5-ethyl-2-fluoro-4-(3-(5-(2-(2-methylpyrrolidin-1-yl)ethyl)-4,5,6,7-tetrahydro-1H-imidazo[4,5-c]pyridin-2-yl)-1H-indazol-6-yl)phenol], for which the “Lung to Plasma ratio Assay 4” value in series [1] is “A (A denotes a ratio >100)”. Also, the IC50 in series [2] is under 10 nM. The Ki on JAK3 is 0.1 to 1 nM; on JAK2 it was under 0.1 nM; at Tyk2 it was 0.316 to 1 nM. In addition, in series [4], the inhibition in vivo at 500 µg/mL was in the range of 50 to 65%.
